Where “and” joins values, the source holds several entries; their conditions need not be identical. Equal values may be shown once.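 Each compound was tested at five concentrations against cells in 96-well plates for 48 hours. GI50 = concentration required for 50% inhibition of growth. TGI denotes the concentration required for complete inhibition of growth.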
Experiments:
Assay in all cases: growth of human tumour cells (NCI), 48 h
PC-3 prostate = tested on: PC-3 prostate
MDA-MB-435 = tested on: MDA-MB-435
MDA-N = tested on: MDA-N
HS 578T breast = tested on: HS 578T breast
LXFL 529 NSCLC = tested on: LXFL 529 NSCLC
KM20L2 colon = tested on: KM20L2 colon
DMS 114 small cell lung = tested on: DMS 114 small cell lung
XF 498 CNS = tested on: XF 498 CNS

Structure (SMILES)	TGI (PC-3 prostate) [µM]	TGI (MDA-MB-435) [µM]	TGI (HS 578T breast) [µM]	GI50 (PC-3 prostate)	GI50 (MDA-MB-435) [nM]	GI50 (HS 578T breast) [nM]	TGI (KM20L2 colon) [µM]	other results
CC(=O)Nc1ccc2nncnc2c1	> 100	> 100	> 100	–	–	–	–	TGI (MDA-N): > 100 µM
O=C1NC(=NCC(CO)c2ccccc2)S/C1=C\c1ccc2ncccc2c1 (stereo not given)	> 25	> 25	> 25	> 25000 nM	11300	14700	–	–
CCN1CCN(CCOc2ccc(CNc3ccc4nc(CCC5CCCCC5)[nH]c4c3)cc2)CC1	5.89	3.73	4.85	2020 nM	1780	1610	–	–
CCOP(=O)(CCP(=O)(OCC)OCC)OCC.C[CH2][Sn]([Cl])([Cl])[CH2]C	> 100	> 100	> 100	> 100000 nM	> 100000	> 100000	> 100	GI50 (LXFL 529 NSCLC): 10.7 µM; TGI (LXFL 529 NSCLC): 22.8 µM; GI50 (KM20L2 colon): > 68.2 µM; GI50 (MDA-N): > 100 µM; TGI (MDA-N): > 100 µM; GI50 (DMS 114 small cell lung): 16.7 µM; TGI (DMS 114 small cell lung): 34.5 µM
O=C1NC(=NCc2cccs2)SC1Cc1ccc2ncccc2c1 (stereo not given)	> 25	> 25	> 25	15600 nM	7210	9870	–	–
CN(C)CCNC(=O)c1cccc2nc3ccc4ccccc4c3nc12	–	–	–	–	–	–	–	TGI (DMS 114 small cell lung): 0.293 µM
CCCc1cc(=O)oc2c(C(=O)CC(C)C)c(O)c(CC=C(C)C)c(O)c12	34.3	43.1	> 50	6220 nM	11800	13400	–	–
COc1ccc2c(=O)c([Se]c3coc4cc(OC)ccc4c3=O)coc2c1	–	–	–	–	–	–	> 100	TGI (XF 498 CNS): > 100 µM; TGI (LXFL 529 NSCLC): > 100 µM; TGI (DMS 114 small cell lung): 42.9 µM
CSC1=Nc2c(c(C)c(-c3ccccc3)n2COC(CO)CO)C2=NC(=O)C(C)N12 (stereo not given)	> 100	> 100	> 100	> 100000 nM	> 100000	> 100000	–	–
O=C1C2=C(C(=O)c3c(O)ccc(O)c31)N(c1ccc(N3CCOCC3)nc1)Cc1ccccc1O2	1.89	1.05	> 55.4	387 nM	321	1520	–	–
O=C(N[C@H](c1ccc(Cl)c(Cl)c1)C1CNC1)c1ccc2cnccc2c1	16.1	11.8	4.71	3480 nM	2840	1000	–	–
CC/C(=N\Nc1nc2ccccc2n1C)c1ccccn1	13.8	12.7	12.7	32.7 nM	224	923	–	–
C/C(=N\NC(=O)CC(=O)Nc1ccc(C)cc1)c1cc2ccccc2oc1=O	–	–	–	–	–	–	> 100	TGI (XF 498 CNS): > 100 µM; TGI (DMS 114 small cell lung): > 100 µM
Cc1ccc(-n2c3c(c4c(CN5CCCCC5)c(O)ccc42)CCc2ccccc2C3=O)cc1	> 100	> 100	> 100	59200 nM	> 100000	> 100000	–	–
C/C(=N/O)C1CC=C(S(=O)(=O)c2ccccc2)C1 (stereo not given)	–	–	–	–	–	–	> 100	TGI (LXFL 529 NSCLC): > 100 µM
COc1cc(/C=C/C(=O)C(=Cc2ccc(F)c(F)c2)C(=O)/C=C/c2ccc(O)c(OC)c2)ccc1O	8.31	10.2	15.4	2490 nM	2930	3250	–	–

Structure (SMILES)	TGI (PC-3 prostate) [µM]	TGI (MDA-MB-435) [µM]	TGI (HS 578T breast) [µM]	GI50 (PC-3 prostate)	GI50 (MDA-MB-435) [nM]	GI50 (HS 578T breast) [nM]	TGI (KM20L2 colon) [µM]	other results
Nc1nc(N)c2cc(CNc3ccc(Cl)c(Cl)c3)ccc2n1	1.89	1.78	3.02	412 nM	380	1340	–	–
COC(=O)[C@]12CC[C@@H](C)[C@H](C)[C@@H]1C1=CC[C@@H]3[C@@]4(C)C[C@@H](OC(=O)c5ccco5)[C@H](O)[C@@](C)(CO)[C@@H]4[C@H](O)C[C@@]3(C)[C@]1(C)CC2	6.73	5.75	7.4	2600 nM	2290	2240	–	–
COc1cc2cc3c4c(cc(OC)c(OC)c4c2cc1OC)CCN3C(=O)CCCC(=O)O	–	–	–	–	–	–	> 100	TGI (LXFL 529 NSCLC): > 100 µM; TGI (DMS 114 small cell lung): > 100 µM
Cn1cc(-c2csc(-c3c[nH]c4ncccc34)n2)c2cc(Br)cnc21	> 100	32.8	> 100	4350 nM	3170	2430	–	–
C=CCN1C(=O)/C(=c2\sc3n(c2=O)C2C(NN=3)N(CC)C(=O)N2CC)c2ccccc21 (stereo not given)	> 100	0.491	58.5	548 nM	207	447	–	–
N/C(=N\O)c1ncc(-c2ccc(C(F)(F)F)cc2)c(NC2CCCCCC2)n1	12.1	17	23.2	5340 nM and 1920 nM	3760	5670	–	–
CN(C)c1cccc(-c2cc(=O)c3ccccc3[nH]2)c1	–	–	–	–	–	–	> 100	TGI (LXFL 529 NSCLC): > 100 µM; GI50 (KM20L2 colon): 34.5 µM; GI50 (DMS 114 small cell lung): 46 µM; TGI (DMS 114 small cell lung): > 100 µM
CCCCCCN(CCCCCC)CCCNc1nccc2ccccc12	5.54	3.06	5.66	2000 nM	1570	2130	–	–
COc1ccc(/C=C2\N=C(c3ccccc3)OC2=O)c(OCc2ccccc2)c1	–	–	–	–	–	–	> 100	TGI (LXFL 529 NSCLC): > 100 µM; TGI (DMS 114 small cell lung): 92.3 µM
CC1C2Cc3ccc(O)cc3C1(C)CCN2C (stereo not given)	> 100	> 100	> 100	–	–	–	–	TGI (MDA-N): > 100 µM
CC(C)(O)[C@@H]1CCC(C)([C@H]2[C@@H](O)CC3(C)C4CC(OC5OC(CO)C(O)C(O)C5O)C5C(C)(C)[C@@H](OC6OCC(O)C(O)C6O)CC[C@@]56C[C@@]46CC[C@]23C)O1 (stereo not given in full)	–	–	–	–	–	–	> 100	TGI (XF 498 CNS): > 100 µM; TGI (LXFL 529 NSCLC): > 100 µM; TGI (DMS 114 small cell lung): > 100 µM
O=C(CCCn1c2c(sc3ncccc32)c(=O)n2nnc(-c3ccccc3)c12)NCCc1cnc[nH]1	> 100	20.5	31.5	10900 nM	489	11300	–	–
O=C(Oc1cccnc1)c1ccccc1Nc1ccnc(C(F)(F)F)c1	> 100	–	> 100	449 nM	–	4130	–	–
CCOc1ccccc1NC(=O)C(=O)CC(=O)C1=C(C)Nc2ccccc2S1	–	–	–	–	–	–	> 100	TGI (XF 498 CNS): > 100 µM; TGI (LXFL 529 NSCLC): > 100 µM
O=c1[nH]c(=S)[nH]c2c1sc(=S)n2-c1ccccc1	–	–	–	–	–	–	> 100	TGI (XF 498 CNS): > 100 µM; TGI (LXFL 529 NSCLC): > 100 µM; TGI (DMS 114 small cell lung): > 100 µM

— PubChem BioAssay (NCI)
